Test results published in ChEMBL document CHEMBL1125544, “Novel thiosemicarbazones derived from formyl- and acyldiazines: synthesis, effects on cell proliferation, and synergism with antiviral agents” (1992).
≈ marks a conversion by molar mass, not a printed value.

How the values were obtained:
Conditions in all cases: Homo sapiens
HuT78 [1] = experiment: Inhibition of proliferation of HUT78 cells.
MT4 [2] = experiment: Inhibition of proliferation of MT-4 cells.
HuT78 [3] = experiment: Compound was evaluated for inhibition of proliferation of HUT78 cells (in vitro)
MT4 [4] = experiment: Compound was evaluated for inhibition of proliferation of MT-4 cells (in vitro)
MT4 [5] = experiment: Compound was evaluated for inhibition of proliferation of MT-4 cells(in vitro)

Row | SMILES | IC50 (HuT78 [1]) [µg/mL] | IC50 (MT4 [2]) [µg/mL] | IC50 (HuT78 [3]) [µg/mL] | IC50 (MT4 [4]) [µg/mL] | IC50 (MT4 [5]) [µg/mL]
1 | C/C(=N\N=C(/S)N1CCCCCC1)c1ccncn1 | 0.0022 (≈ 0.00793 µM) | 0.016 (≈ 0.0577 µM) | – | – | –
2 | CC/C(=N\N=C(/S)N1CCCCC1)c1cccnn1 | 0.071 (≈ 0.256 µM) | 0.03 (≈ 0.108 µM) | – | – | –
3 | CC/C(=N\N=C(/S)N1CCCC1)c1cccnn1 | 0.052 (≈ 0.197 µM) | 0.016 (≈ 0.0608 µM) | – | – | –
4 | C/N=C(\S)N/N=C(\C)c1ccncn1 | 0.022 (≈ 0.105 µM) | 0.02 (≈ 0.0956 µM) | – | – | –
5 | CC(N/N=C(\S)N1CCCCCC1)c1cccnn1 (stereo not drawn) | 0.04 (≈ 0.143 µM) | 0.028 (≈ 0.1 µM) | – | – | –
6 | C/C(=N\N=C(/S)N1CC2CCC(CC2)C1)c1ccncn1 | 0.036 (≈ 0.119 µM) | 0.047 (≈ 0.155 µM) | – | – | –
7 | CCC/C(=N\N=C(/S)N1CCCCC1)c1cccnn1 | 0.0023 (≈ 0.00789 µM) | 0.0012 (≈ 0.00412 µM) | – | – | –
8 | C/C(=N\NC(=S)N1CCCC1)c1cnccn1 | 0.00049 (≈ 0.00197 µM) | 0.00019 (≈ 0.000762 µM) | – | – | –
9 | C/C(=N\N=C(\N)S)c1ccc(C)nn1 | 1.58 (≈ 7.55 µM) | 1.49 (≈ 7.12 µM) | – | – | –
10 | C/C(=N\N=C(/S)N1CCCC1)c1ccncn1 | 0.00031 (≈ 0.00124 µM) | 0.00026 (≈ 0.00104 µM) | – | – | –
11 | C/C(=N\N=C(/S)NCc1ccccn1)c1ccncn1 | 0.24 (≈ 0.838 µM) | 0.018 (≈ 0.0629 µM) | – | – | –
12 | CC/C(=N\N=C(/S)N1CCCCCC1)c1cccnn1 | 0.073 (≈ 0.25 µM) | 0.039 (≈ 0.134 µM) | – | – | –
13 | CN(C)/C(S)=N/N=C/c1cccnn1 | 0.11 (≈ 0.526 µM) | 0.11 (≈ 0.526 µM) | – | – | –
14 | C/C(=N\N=C(/S)NCc1ccccn1)c1cnccn1 | 1.11 (≈ 3.88 µM) | 0.041 (≈ 0.143 µM) | – | – | –
15 | CC(N/N=C(\S)N1CC2CCC(CC2)C1)c1cccnn1 (stereo not drawn) | 0.038 (≈ 0.124 µM) | 0.034 (≈ 0.111 µM) | – | – | –
16 | C/C(=N\N=C(\N)S)c1ccncn1 | 0.82 (≈ 4.2 µM) | 0.14 (≈ 0.717 µM) | – | – | –
17 | C/C(=N\N=C(/S)N1CCCCC1)c1ccc(C)nn1 | 0.055 (≈ 0.198 µM) | 0.019 (≈ 0.0685 µM) | – | – | –
18 | C/C(=N\N=C(/S)NCc1ccccn1)c1cccnn1 | 2.01 (≈ 7.02 µM) | 0.87 (≈ 3.04 µM) | – | – | –
19 | C/C(=N\NC(=S)N(C)C)c1cnccn1 | 0.00062 (≈ 0.00278 µM) | 0.00045 (≈ 0.00202 µM) | – | – | –
20 | CC(N/N=C(\S)N1CCCC1)c1cccnn1 (stereo not drawn) | 0.068 (≈ 0.271 µM) | 0.016 (≈ 0.0637 µM) | – | – | –
21 | C/C(=N\N=C(/S)N(C)C)c1ccc(C)nn1 | 0.088 (≈ 0.371 µM) | 0.12 (≈ 0.506 µM) | – | – | –
22 | C/N=C(\S)N/N=C(\C)c1cccnn1 | 1.86 (≈ 8.89 µM) | 1.62 (≈ 7.74 µM) | – | – | –
23 | C/N=C(\S)N/N=C(\C)c1ccc(C)nn1 | 2.15 (≈ 9.63 µM) | 1.52 (≈ 6.81 µM) | – | – | –
24 | C/C(=N\N=C(/S)NCc1ccccn1)c1ccc(C)nn1 | 2.82 (≈ 9.39 µM) | 1.64 (≈ 5.46 µM) | – | – | –
25 | C/C(=N\NC(=S)N(C)C)c1ccccn1 | – | – | 0.00055 (≈ 0.00247 µM) | 0.00011 (≈ 0.000495 µM) | –

Row | SMILES | IC50 (HuT78 [1]) [µg/mL] | IC50 (MT4 [2]) [µg/mL] | IC50 (HuT78 [3]) [µg/mL] | IC50 (MT4 [4]) [µg/mL] | IC50 (MT4 [5]) [µg/mL]
26 | CCC/C(=N\N=C(/S)N1CCCC1)c1cccnn1 | 0.068 (≈ 0.245 µM) | 0.036 (≈ 0.13 µM) | – | – | –
27 | C/C(=N\N=C(/S)N1CCCCCC1)c1cnccn1 | 0.0083 (≈ 0.0299 µM) | 0.0059 (≈ 0.0213 µM) | – | – | –
28 | C/C(=N\N=C(/S)N1CCCCC1)c1ccncn1 | 0.0037 (≈ 0.014 µM) | 0.0013 (≈ 0.00494 µM) | – | – | –
29 | C=CCN/C(S)=N/N=C(\C)c1ccncn1 | 0.031 (≈ 0.132 µM) | 0.081 (≈ 0.344 µM) | – | – | –
30 | C/C(=N\NC(N)=S)c1ccccn1 | – | – | 0.35 (≈ 1.8 µM) | – | 0.049 (≈ 0.252 µM)
31 | C/C(=N\N=C(/S)N1CC2CCC(CC2)C1)c1cnccn1 | 0.0069 (≈ 0.0227 µM) | 0.0054 (≈ 0.0178 µM) | – | – | –
32 | C/C(=N\NC(=S)N1CCCCC1)c1cnccn1 | 0.00052 (≈ 0.00197 µM) | 0.00055 (≈ 0.00209 µM) | – | – | –
33 | C/C(=N\N=C(/S)N(C)C)c1ccncn1 | 0.00065 (≈ 0.00291 µM) | 0.00049 (≈ 0.00219 µM) | – | – | –
34 | C=CCN/C(S)=N/N=C(\C)c1cccnn1 | 2.65 (≈ 11.3 µM) | 1.28 (≈ 5.44 µM) | – | – | –
35 | N/C(S)=N/N=C/c1cccnn1 | 4.21 (≈ 23.2 µM) | 2.18 (≈ 12 µM) | – | – | –
36 | S=C(NCc1ccccn1)N/N=C/c1cccnn1 | 5.62 (≈ 20.6 µM) | 3.9 (≈ 14.3 µM) | – | – | –
37 | C=CCN/C(S)=N/N=C(\C)c1cnccn1 | 0.036 (≈ 0.153 µM) | 0.014 (≈ 0.0595 µM) | – | – | –
38 | CCC/C(=N\N=C(/S)N1CC2CCC(CC2)C1)c1cccnn1 | 0.062 (≈ 0.187 µM) | 0.084 (≈ 0.253 µM) | – | – | –
39 | CC(N/N=C(\S)N1CCCCC1)c1cccnn1 (stereo not drawn) | 0.074 (≈ 0.279 µM) | 0.033 (≈ 0.124 µM) | – | – | –
40 | CCC/C(=N\N=C(/S)N1CCCCCC1)c1cccnn1 | 0.098 (≈ 0.321 µM) | 0.088 (≈ 0.288 µM) | – | – | –
41 | C=CCN/C(S)=N/N=C(\C)c1ccc(C)nn1 | 2.81 (≈ 11.3 µM) | 1.47 (≈ 5.9 µM) | – | – | –
42 | C/N=C(\S)N/N=C(\C)c1cnccn1 | 0.88 (≈ 4.2 µM) | 0.46 (≈ 2.2 µM) | – | – | –
43 | C/N=C(\S)N/N=C/c1cccnn1 | 4.52 (≈ 23.1 µM) | 2.42 (≈ 12.4 µM) | – | – | –
44 | C/C(=N\N=C(\N)S)c1cnccn1 | 1.39 (≈ 7.12 µM) | 0.95 (≈ 4.87 µM) | – | – | –
45 | C/C(=N\N=C(/S)N1CCCC1)c1ccc(C)nn1 | 0.073 (≈ 0.277 µM) | 0.036 (≈ 0.137 µM) | – | – | –
46 | C/C(=N\N=C(\N)S)c1cccnn1 | 0.99 (≈ 5.07 µM) | 1.13 (≈ 5.79 µM) | – | – | –
47 | C=CCNC(=S)N/N=C/c1cccnn1 | 6.22 (≈ 28.1 µM) | 3.1 (≈ 14 µM) | – | – | –
48 | C/C(=N\N=C(/S)N(C)C)c1cccnn1 | 0.079 (≈ 0.354 µM) | 0.1 (≈ 0.448 µM) | – | – | –
49 | C/C(=N\N=C(/S)N1CCCCCC1)c1ccc(C)nn1 | 0.054 (≈ 0.185 µM) | 0.028 (≈ 0.0961 µM) | – | – | –
